Laboratory results as given in US20080280879A1, “SUBSTITUTED HETEROCYCLIC DERIVATIVES AND THEIR PHARMACEUTICAL USE AND COMPOSITIONS” (priority 2007, published 2008).
Converted amounts (≈) assume the structure as drawn.

Assays:
Assay type in all cases: cell-based, Staphylococcus aureus
[1] = system: Staph aureus 1095 MRSA; test: MIC, microtiter broth dilution (CLSI M7-A7), Assay 1, Table 12 column A, no serum; conditions: Assay 1, no serum; for MIC: Staphylococcus aureus, MRSA
In short: (§1)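 MIC read as lowest drug level giving no macroscopically visible growth, μg/ml. Method: CLSI M7-A7 microtiter broth dilution, M100-S16 interpretation. Serum arm: inoculum in Mueller-Hinton Broth + 50% pooled inactivated human serum. Multiple runs → geometric mean.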

[2] = system: Staph aureus 1146; test: MIC, microtiter broth dilution (CLSI M7-A7), Assay 1, Table 12 column B, no serum; conditions: for MIC: Staphylococcus aureus, 1146, Staph aureus 1146, Assay 1, no serum; for MIC, column B: Staph aureus 1146, Assay 1, no serum
In short: as §1

[3] = system: Staph aureus 2812; test: MIC, microtiter broth dilution (CLSI M7-A7), Assay 1, Table 12 column E, no serum; conditions: for MIC: Staphylococcus aureus, 2812, Staph aureus 2812, Assay 1, no serum; for MIC, column E: Staph aureus 2812, Assay 1, no serum
In short: as §1

[4] = system: Staph aureus 2811; test: MIC, microtiter broth dilution (CLSI M7-A7), Assay 1, Table 12 column D, no serum; conditions: for MIC: Staphylococcus aureus, 2811, Staph aureus 2811, Assay 1, no serum; for MIC, column D: Staph aureus 2811, Assay 1, no serum
In short: as §1

[5] = system: Staph aureus 1146; test: MIC in Mueller-Hinton Broth with 50% pooled inactivated human serum, Assay 1, Table 12; conditions: for MIC: Staphylococcus aureus, 1146, Staph aureus 1146, Assay 1, 50% human serum, read-out: MIC, column C; for MIC, column C: Staph aureus 1146, Assay 1, 50% human serum
In short: as §1

Row | SMILES | MIC [1] | MIC [2] | MIC [3] | MIC [4] | MIC [5] | MIC, column A [1] | MIC, column B [2] | MIC, column E [3] | MIC, column D [4] | MIC, column C [5]
1 | COc1ccc2nccc([C@@H](O)CC[C@@H]3CCN(C4CC(c5ccc(F)c(C#N)c5)C4)C[C@@H]3C(=O)O)c2c1 (stereo partly drawn) [Example 216, (3R,4R)-1-[3-(3-cyano-4-fluorophenyl)cyclobutyl]-4-[(3S)-3-hydroxy-3-(6-methoxyquinolin-4-yl)propyl] piperidine-3-carboxylic acid] | > 64 µg/mL | 16 µg/mL (≈ 30.9 µM) | 32 µg/mL (≈ 61.8 µM) | 8 µg/mL (≈ 15.5 µM) | 64 µg/mL (≈ 124 µM) |  |  |  |  | 
2 | COc1ccc2ncnc(CCCC3(C(=O)O)CCN(C4CC(c5ccccc5)C4)CC3)c2c1 (centres unmarked) [Example 111, 4-[3-(6-methoxyquinazolin-4-yl)propyl]-1-(3-phenylcyclobutyl)piperidine-4-carboxylic acid] | 4 µg/mL (≈ 8.7 µM) | 2 µg/mL (≈ 4.35 µM) | 1 µg/mL (≈ 2.18 µM) | 1 µg/mL (≈ 2.18 µM) | > 64 µg/mL |  |  |  |  | 
3 | COc1ccc2nccc(C(O)CC[C@@H]3CCN(C4CC(c5cc(F)ccc5F)C4)C[C@@H]3C(=O)O)c2c1 (stereo partly drawn) [Example 38, (3R,4R)-1-[3-(2,5-difluorophenyl)cyclobutyl]-4-[3-hydroxy-3-(6-methoxyquinolin-4-yl)propyl] piperidine-3-carboxylic acid] | 0.25 µg/mL (≈ 0.49 µM) | 0.125 µg/mL (≈ 0.245 µM) | 0.125 µg/mL (≈ 0.245 µM) | 0.125 µg/mL (≈ 0.245 µM) | 4 µg/mL (≈ 7.83 µM) |  |  |  |  | 
4 | COc1ccc2ncc(Cl)c(C(O)CCC3(C(=O)O)CCN(C4CC(c5ccccc5)C4)CC3)c2c1 (centres unmarked) [Example 141, 4-(3-(3-chloro-6-methoxyquinolin-4-yl)-3-hydroxypropyl)-1-(3-phenylcyclobutyl)piperidine-4-carboxylic acid] | 2 µg/mL (≈ 3.93 µM) | 1 µg/mL (≈ 1.96 µM) | 1 µg/mL (≈ 1.96 µM) | 0.5 µg/mL (≈ 0.982 µM) | 32 µg/mL (≈ 62.9 µM) |  |  |  |  | 
5 | COc1ccc2nccc([C@@H](O)CC[C@@H]3CCN(C4CC(c5cccc(F)c5)C4)C[C@@H]3C(=O)O)c2c1 (stereo partly drawn) [Example 92, (3R,4R)-1-[3-(3-fluorophenyl)cyclobutyl]-4-[(3S)-3-hydroxy-3-(6-methoxyquinolin-4-yl)propyl]piperidine-3-carboxylic acid] | 0.125 µg/mL (≈ 0.254 µM) | ≤ 0.0625 µg/mL | ≤ 0.0625 µg/mL | ≤ 0.0625 µg/mL | 0.5 µg/mL (≈ 1.02 µM) |  |  |  |  | 
6 | COc1ccc2nccc(C(O)CC[C@@H]3CCN(C4CC(c5cc(C)no5)C4)C[C@@H]3C(=O)O)c2c1 (stereo partly drawn) [Example 115, (3R,4R)-4-[3-hydroxy-3-(6-methoxyquinolin-4-yl)propyl]-1-[3-(3-methylisoxazol-5-yl)cyclobutyl]piperidine-3-carboxylic acid] | 32 µg/mL (≈ 66.7 µM) | 8 µg/mL (≈ 16.7 µM) | 16 µg/mL (≈ 33.4 µM) | 8 µg/mL (≈ 16.7 µM) | 64 µg/mL (≈ 133 µM) |  |  |  |  | 
7 | COc1ccc2nccc(C(O)CC[C@@H]3CCN(C4CC(CC5CCCC5)C4)C[C@@H]3C(=O)O)c2c1 (some centres unmarked) [Example 49] |  |  |  |  |  | 0.125 µg/mL (≈ 0.26 µM) | <=.0625 μg/ml | <=.0625 μg/ml | <=.0625 μg/ml | 0.25 µg/mL (≈ 0.52 µM)
8 | COc1ccc2ncc(Cl)c(C(O)CC[C@@H]3CCN(C4CC(c5cc(F)ccc5F)C4)C[C@@H]3C(=O)O)c2c1 (stereo partly drawn) [Example 203, (3R,4R)-4-[3-(3-chloro-6-methoxyquinolin-4-yl)-3-hydroxypropyl]-1-[3-(2,5-difluorophenyl)cyclobutyl]piperidine-3-carboxylic acid] |  |  |  |  |  | 0.250 µg/mL (≈ 0.459 µM) | 0.125 µg/mL (≈ 0.229 µM) | 0.125 µg/mL (≈ 0.229 µM) | 0.125 µg/mL (≈ 0.229 µM) | 16.0 µg/mL (≈ 29.4 µM)
9 | COc1ccc2nccc(C(O)CC[C@@H]3CCN(C4CN(C5CCOC5)C4)C[C@@H]3C(=O)O)c2c1 (stereo partly drawn) [Example 129, (3R,4R)-4-[3-hydroxy-3-(6-methoxyquinolin-4-yl)propyl]-1-[1-(tetrahydrofuran-3-yl)azetidin-3-yl] piperidine-3-carboxylic acid] | > 64 µg/mL | > 64 µg/mL | > 64 µg/mL | > 64 µg/mL | > 64 µg/mL |  |  |  |  | 
10 | COc1ccc2nccc([C@H](O)CC[C@@H]3CCN(C4CC(c5ccccc5F)C4)C[C@@H]3C(=O)O)c2c1 (stereo partly drawn) [Example 90, (3R,4R)-1-[3-(2-fluorophenyl)cyclobutyl]-4-[(3R)-3-hydroxy-3-(6-methoxyquinolin-4-yl)propyl]piperidine-3-carboxylic acid] | < 0.0625 µg/mL | < 0.0625 µg/mL | < 0.0625 µg/mL | < 0.0625 µg/mL | 1 µg/mL (≈ 2.03 µM) |  |  |  |  | 
11 | COc1ccc2ncc(Cl)c(C(O)CC[C@@H]3CCN(C4CC(c5cc(F)ccc5F)C4)C[C@@H]3C(=O)O)c2c1 (stereo partly drawn) [Example 204, (3R,4R)-4-[3-(3-chloro-6-methoxyquinolin-4-yl)-3-hydroxypropyl]-1-[3-(2,5-difluorophenyl)cyclobutyl]piperidine-3-carboxylic acid] |  |  |  |  |  | 0.250 µg/mL (≈ 0.459 µM) | 0.125 µg/mL (≈ 0.229 µM) | 0.250 µg/mL (≈ 0.459 µM) | 0.125 µg/mL (≈ 0.229 µM) | 4.00 µg/mL (≈ 7.34 µM)
12 | COc1ccc2nccc(C(=O)CC[C@@H]3CCN(C4CC(c5ccccc5)C4)C[C@@H]3C(=O)O)c2c1 (stereo partly drawn) [Example 135, (3R,4R)-4-[3-(6-Methoxy-quinolin-4-yl)-3-oxo-propyl]-1-(3-phenyl-cyclobutyl)-piperidine-3-carboxylic acid] | 0.25 µg/mL (≈ 0.529 µM) | 0.25 µg/mL (≈ 0.529 µM) | 0.25 µg/mL (≈ 0.529 µM) | 0.125 µg/mL (≈ 0.265 µM) | 8 µg/mL (≈ 16.9 µM) |  |  |  |  | 
13 | COc1ccc2nccc(C(O)CC[C@@H]3CCN(C4CC(O)(c5ccccc5)C4)C[C@@H]3C(=O)O)c2c1 (mixture of isomers) [Example 95, (3R,4R)-4-[3-hydroxy-3-(6-methoxyquinolin-4-yl)propyl]-1-(3-hydroxy-3-phenylcyclobutyl)piperidine-3-carboxcylic acid] |  |  |  |  |  | >64 µg/mL | 16 µg/mL | >64 µg/mL | >64 µg/mL | >64 µg/mL
14 | COc1ccc2ncc(F)c(C(O)CC[C@@H]3CCN(C4CC(c5c(F)cccc5F)C4)C[C@@H]3C(=O)O)c2c1 (single isomer, unassigned) [Example 18] | ≤ 0.0625 µg/mL | ≤ 0.0625 µg/mL | ≤ 0.0625 µg/mL | ≤ 0.0625 µg/mL | 0.25 µg/mL (≈ 0.473 µM) |  |  |  |  | 
15 | O=C(O)[C@H]1CN(C2CC(c3c(F)cccc3F)C2)CC[C@H]1CCC(O)c1c(F)cnc2ccc(O)nc12 (stereo partly drawn) [Example 201, (3R,4R)-1-[3-(2,6-difluorophenyl)cyclobutyl]-4-[3-(3-fluoro-6-hydroxy-1,5-naphthyridin-4-yl)-3-hydroxypropyl]piperidine-3-carboxylic acid] | 16 µg/mL (≈ 31 µM) | 2 µg/mL (≈ 3.88 µM) | 4 µg/mL (≈ 7.76 µM) | 2 µg/mL (≈ 3.88 µM) | 8 µg/mL (≈ 15.5 µM) |  |  |  |  | 
16 | COc1ccc2ncc(Cl)c(C(O)CC[C@@H]3CCN(C4CC(c5ccccc5)C4)C[C@@H]3C(=O)O)c2c1 (stereo partly drawn) [Example 211, (3R,4R)-4-[3-(3-chloro-6-methoxyquinolin-4-yl)-3-hydroxypropyl]-1-(3-phenylcyclobutyl)piperidine-3-carboxylic acid] |  |  |  |  |  | <0.0625 µg/mL | <0.0625 µg/mL | <0.0625 µg/mL | <0.0625 µg/mL | 0.250 µg/mL (≈ 0.491 µM)
17 | COc1ccc2ncc(F)c(C(O)CC[C@@H]3CCN([C@H]4C[C@H](c5c(F)cccc5F)C4)C[C@@H]3C(=O)O)c2c1 (stereo partly drawn) [Example 215, (3R,4R)-1-[trans-3-(2,6-difluorophenyl)cyclobutyl]-4-[3-(3-fluoro-6-methoxyquinolin-4-yl)-3-hydroxypropyl] piperidine-3-carboxylic acid] | < 0.0625 µg/mL | < 0.0625 µg/mL | < 0.0625 µg/mL | < 0.0625 µg/mL | 1 µg/mL (≈ 1.89 µM) |  |  |  |  | 
18 | COc1ccc2nccc(C(N)CC[C@@H]3CCN(C4CC(c5ccccc5)C4)C[C@@H]3C(=O)O)c2c1 (stereo partly drawn) [Example 138, (3R,4R)-4-[3-Amino-3-(6-methoxy-quinolin-4-yl)-propyl]-1-(3-phenyl-cyclobutyl)-piperidine-3-carboxylic acid] | 2 µg/mL (≈ 4.22 µM) | 1 µg/mL (≈ 2.11 µM) | 2 µg/mL (≈ 4.22 µM) | 0.5 µg/mL (≈ 1.06 µM) | 0.5 µg/mL (≈ 1.06 µM) |  |  |  |  | 
19 | COc1ccc2ncc(Cl)c(CCCC3(C(=O)O)CCN(C4CCC(c5cc(F)ccc5F)C4)C3)c2c1 (centres unmarked) [Example 199, 3-[3-(3-chloro-6-methoxyquinolin-4-yl)propyl]-1-[3-(2,5-difluorophenyl)cyclopentyl]pyrrolidine-3-carboxylic acid] | 0.125 µg/mL (≈ 0.236 µM) | < 0.0625 µg/mL | < 0.0625 µg/mL | < 0.0625 µg/mL | > 64 µg/mL |  |  |  |  | 
